Measured values taken from patent publication US10344065B2, “Method for treating Alzheimer's disease and method for downregulating protein aggregation in brain” (National Cheng Kung University, priority 2017, dated 2019).

Key:
3×Tg mice = test: Novel object recognition test; format: in vivo, mouse; settings: vs sham
Experimental: All experiments were carried out in accordance with the National Institutes of Health Guidelines for animal research (Guide for the Care and Use of Laboratory Animal) and approved by the National Cheng Kung University Institutional Animal Care and Use Committee. The 3×Tg mice (B6; 129-Psen1tm1Mpm Tg[APPSwe, tauP301L]1Lfa/Mmjax), were obtained from the Jackson Laboratory (Bar Harbor, […], USA) and housed in a controlled room (temperature 23±1° C., humidity 55±5%, 12-hour light/12-hour dark cycle, light cycle begins at 06:00) located in the Laboratory Animal Center of National Cheng Kung University (Tainan, Taiwan) with unrestricted access to food and water. All mice were genotyped using a protocol provided by the Jackson Laboratory. The 3×Tg mice develop intracellular Aβ immuno-positive staining as early as 3-4 months and aggregates of hyperphosphorylated tau in the hippocampus around 12 months of age. Impaired synaptic transmission and long-term potentiation are evident about 6 months of age. At the age of 10 months (body weight, 31˜35 g), five 3×Tg mice received four consecutive weekly injections of Zfra4-10 solution (2 mM in phosphate buffered saline [PBS], 100 μL each injection) from the tail veins. […]
The experiment was performed from 6 PM each day. […] The cumulative times spent by the mouse in exploring each of the objects were recorded during a 5-minute period. […] The times spent in exploring each object during a 5-minute period were recorded in either the STM or the LTM test. […]
All experimental results were represented as mean±standard error of the mean. The results for novel object recognition test, probe test of Morris water maze, relative ventricle area, and relative optical density of pS412-tau immunoreactivity were analyzed by two-tailed Mann-Whitney test, whereas the Aβ-positive cell number was analyzed by two-tailed unpaired t-test. The Morris water maze learning section results were analyzed using a repeated mixed-model analysis of variance with training session as within-subject factor and the Zfra injection as between-subject factor. […]

[1] = biological target: T1, WWOX7-21, WWOX286-299, and ANKRD40266-281 peptides (Homo sapiens, UniProt Q9NZC7); test: Polymerization of serine-containing WWOX and ANKRD40 peptides in PBS; format: biochemical
T1 construct: purchased Genemed Synthesis
Experimental: (§1) FIG. 5 includes photos and diagrams showing that Zfra suppresses polymerization or aggregation of serine-containing TPC6AΔ and other peptides in PBS. Zfra4-10 was incubated with an indicated serine-containing peptide in PBS at room temperature for 24 hours (final 200 μM each peptide). The mixtures were subjected to nonreducing sodium dodecyl sulfate polyacrylamide gel electrophoresis (SDS-PAGE). (A) Full-length Zfra or red-fluorescent TMR-Zfra blocked aggregation of Aβ42 (lanes 3, 5, and 7). […] The membrane was stained with antibody against Aβ. (B) Zfra4-10 and one of the TPC6AΔ peptides were resuspended in Milli-Q water or PBS and incubated for 24 hours at room temperature. Zfra4-10 suppressed the polymerization of serine-containing peptides. Reduction in intensity=[1−(Z.P)/(Z+P)]×100%, where Z=Zfra4-10, P=an indicated peptide, and Z.P=peptide mixture. […] Zfra4-10 suppressed polymerization of these peptides in PBS.
(§2) Zfra and serine-containing peptides were synthesized by Genemed Synthesis (San Antonio, Tex., USA), (1) Zfra1-31, […] (SEQ ID NO: 2); (2) Zfra4-10, RRSSSCK (SEQ ID NO: 1); (3) WWOX7-21, AGLDDTDSEDELPPG (SEQ ID NO: 3); (4) pS14-WWOX7-21, AGLDDTDpSEDELPPG (SEQ ID NO: 4); (5). WWOX286-299, DYWAMLAYNRSKLC (SEQ ID NO: 5); (6) pY287-WWOX286-299, DpYWAMLAYNRSKLC (SEQ ID NO: 6); (7) TPC6A24-38, DPGPGGQKMSLSVLE (SEQ ID NO: 7); (8) pS35-TPC6A24-38, DPGPGGQKMSLpSVLE (SEQ ID NO: 8); (9) TPC6A84-100, KDLWVAVFQKQMDSLR (SEQ ID NO: 9); (10) ANKRD40266-281, RIQNPSLRENDFIEIE (SEQ ID NO: 10); (11) pS271-ANKRD40266-281, RIQNPpSLRENDFIEIE (SEQ ID NO: 11); (12) tetramethylrhodamine-labeled Zfra (TMR-Zfra), the full-length Zfra1-31 was labeled with a red-fluorescent […] fluorescent probe tetramethylrhodamine. The peptide stocks were made as 10 mM in degassed sterile Milli-Q water. Each tube was flushed with nitrogen and stored in −80° C. freezer. For tail vein injections, peptides were freshly prepared in degassed Milli-Q water at 1-4 mM in 100-μL Milli-Q. GenBank accession for ANKRD40 is EU164539. Aβ peptides were from AnaSpec, (1) Aβ42: […] (SEQ ID NO: 12); (2) Aβ40: […] […]

[2] = tested on: WWOX7-21, WWOX286-299, and ANKRD40266-281 peptides; test: as above; format: biochemical
Experimental: as §1, §2

“RRSSSCK [Zfra4-10, truncated zinc finger-like peptide, amino acids 4-10 of Zfra]” was tested, and the “exploring times of the novel object, short-term memory task” value (3×Tg mice; 3×Tg mice, 2 hours after acquisition, P=0.074) was “marginal, but not significant, increase”, the “novel object exploring times, long-term memory task” value (3×Tg mice; 3×Tg mice, 24 hours after acquisition, P=0.008) was “significantly higher” and the “exploring times on each object, acquisition phase” value (3×Tg mice; 11-month-old 3×Tg mice, one week after four weekly tail vein injections (2 mM, 100 μL), 5-minute acquisition, P>0.5) was “approximately equal exploring times on each object”. The “aggregation of pY287-WWOX286-299” value [1] was “did not effectively block”, the “polymerization of phosphorylated WWOX7-21 and ANKRD40266-281” value [2] was “had apparent effects” and the “polymerization or aggregation of non-phosphorylated WWOX7-21, WWOX286-299, ANKRD40266-281” value [2] was “effectively blocked”.
